Experimental findings from patent US9580398B2, “Compounds, compositions, and methods for modulating ferroptosis and treating excitotoxic disorders” (The Trustees of Columbia University in the City of New York, priority 2012, dated 2017) are described below.

By EC50 is commonly meant the midpoint of the concentration-response curve. The low end stands for an effect from little substance, the high end for a need for much substance.

Each structure is given as a SMILES string. Bounds are passed on as bounds.

The subject of this experiment is erastin (10 μM)-treated HT-1080 cells. Briefly: Inhibition of death in erastin (10 μM)-treated HT-1080 cells, viability by Alamar Blue. The experiment is classed as cell-based, human. The method, then: Cell viability was typically assessed in 384-well format by Alamar Blue (Invitrogen) fluorescence (ex/em 530/590) measured on a Victor3 platereader (Perkin Elmer, Waltham, Mass.). In some experiments, Trypan Blue dye exclusion counting was performed using an automated cell counter (ViCell, Beckman-Coulter Inc., Brea, Calif.). Cell viability in test conditions is reported as a percentage relative to the negative control treatment.
Flow cytometry data was analyzed using FloJo (9.3.2, Tree Star, Inc., Ashland, Oreg.). Chemical structures were drawn using ChemDraw Ultra (Cambridgesoft, Cambridge, Mass.). Computational determination of log P (Slog P function) was performed using MOE 2010.10 (Chemical Computing Group, Montreal, […].). Viability data was analyzed using Excel (Microsoft Corp., […].). Summary data and heatmaps were generated using R. Dose-response curves were computed by 4-parameter logistic regression in Prism 5.0c (GraphPad Software). Images were manipulated using Photoshop CS4 and Illustrator CS4 (Adobe, San Jose, Calif.).
The ability of various compounds disclosed herein to inhibit death in erastin (10 μM)-treated HT-1080 cells were tested. Cell viability was assessed by Alamar Blue. EC50 values (nM) were computed from dose response curves.
(Alamar Blue is a resazurin reagent that responds to reducing activity.)

The mark [1] stands for this setting: Homo sapiens, HT-1080, inhibition of death in erastin (10 μM)-treated HT-1080 cells, Alamar Blue, from dose response curves.

`CCOC(=O)c1cnc(NC2CCCCC2)c(NCc2ccncc2)c1` [SRS14-92, ethyl 6-(cyclohexylamino)-5-(pyridin-4-ylmethylamino)pyridine-3-carboxylate] returned an EC50 under setting [1] of 0.194 µM. On the same count and under the same terms, next, `CCOC(=O)c1ccc(NC2CCC2)c(N)c1` [SRS8-71, ethyl 3-amino-4-(cyclobutylamino)benzoate]: 0.265 µM. In turn, `CCOC(=O)c1ccc(NC2CCCCCC2)c(N)c1` [SRS8-90, ethyl 3-amino-4-(cycloheptylamino)benzoate] showed an EC50 under setting [1] of 0.13 µM. On the same count and under the same terms, next, `CCOC(=O)c1ccc(NC23CC4CC(CC(C4)C2)C3)c(NCc2cncnc2)c1` [SRS15-25, ethyl 4-(1-adamantylamino)-3-(pyrimidin-5-ylmethylamino)-benzoate]: 0.054 µM. Consider `Nc1ccccc1NC1CCCCC1` [SRS8-75, N1-cyclohexylbenzene-1,2-diamine], for which the concentration for a half-maximal effect (EC50) (Homo sapiens, HT-1080) is 0.33 µM. Molecule `CCOC(=O)c1ccc(NC2CCCCC2)c(NCc2ccc(F)c(C#N)c2)c1` [SRS12-54, ethyl 3-(3-cyano-4-fluorobenzylamino)-4-(cyclohexylamino)-benzoate] had an EC50 under setting [1] of 0.158 µM. On the same count and under the same terms, next, `CCOC(=O)c1ccc(NC2CCCCCCC2)c(C(=O)OC(C)(C)C)c1` [SRS8-91, ethyl 3-(tert-butoxycarbonyl)-4-(cyclooctylamino)benzoate]: more than 10 µM; `CCOC(=O)c1ccc(NC23CC4CC(CC(C4)C2)C3)c(NCc2ccncc2)c1` [SRS15-24, ethyl 4-(1-adamantylamino)-3-((pyridin-4-ylmethyl)amino)-benzoate]: 0.009 µM. The same measure, in the same setting: in the case of `CCOC(=O)c1ccc(NC2CCCCC2)c(NCc2ccc([N+](=O)[O-])cc2)c1` [SRS12-36, ethyl 4-(cyclohexylamino)-3-((4-nitrobenzyl)amino)benzoate] it was 0.035 µM; in that of `CCOC(=O)c1ccc(Cl)c(N)c1` [SRS8-62, ethyl 3-amino-4-chlorobenzoate], more than 10 µM; in that of `CC(C)(C)OC(=O)CCOCCOC(=O)c1ccc(NC2CCCCC2)c(N)c1` [SRS8-37, 2-(2-(tert-butoxycarbonyl)ethoxy)ethyl 3-amino-4-(cyclohexylamino)benzoate], 0.16 µM. Still for that read-out and setting: in the case of `CCOC(=O)c1cc(N)c(NC2CCCCC2)cc1C` [SRS14-58, ethyl 5-amino-4-(cyclohexylamino)-2-methylbenzoate] it was 0.028 µM; in that of `CCOC(=O)c1ccc(NC2CCCCC2)c(NCc2ccccn2)c1` [SRS12-46, ethyl 4-(cyclohexylamino)-3-(pyridin-2-ylmethylamino)-benzoate], 0.032 µM. In turn, `CCOC(=O)c1ccc(NC2CCCCC2)c(NCc2cc(F)cc(F)c2)c1` [SRS12-59, ethyl 4-(cyclohexylamino)-3-(3,5-difluorobenzylamino)-benzoate] had an EC50 under setting [1] of 0.095 µM.

As for `CCOC(=O)c1ccc(NC2CCOCC2)c(N)c1` [SRS8-41, ethyl 3-amino-4-(tetrahydro-2H-pyran-4-ylamino)benzoate], the midpoint of the response under setting [1], the EC50, lay at 1.45 µM. Compared with the last molecule, the EC50 is about 15-fold higher. Same read-out and setting: in the case of `CCOC(=O)c1ccc(NC2CCC(C(C)(C)C)CC2)c(NCc2cncnc2)c1` (stereo not shown) [SRS13-37, ethyl 4-(4-tert-butylcyclohexylamino)-3-(pyrimidin-5-ylmethylamino)benzoate] it was 0.015 µM; in that of `CCOC(=O)c1cc(N)c(NC2CCCCC2)cc1F` [SRS14-55, ethyl 5-amino-4-(cyclohexylamino)-2-fluorobenzoate], 0.104 µM. `CCOC(=O)c1cc(N)c(NC2CCCCC2)cc1Cl` [SRS14-57, ethyl 5-amino-2-chloro-4-(cyclohexylamino)benzoate]: under setting [1], the EC50 stood at 0.054 µM.

`CCOC(=O)c1ccc(NC2C3CC4CC(C3)CC2C4)c(N)c1` (stereo not shown) [SRS15-17, ethyl 3-amino-4-(2-adamantylamino)benzoate] returned an EC50 under setting [1] of 0.171 µM.

Consider `CCOC(=O)c1ccc(NC2CCC(C(=O)OC(C)(C)C)CC2)c(N)c1` (stereo not shown) [SRS8-46, ethyl 3-amino-4-(4-(tert-butoxycarbonyl)cyclohexylamino) benzoate], for which it took 0.515 µM to reach a half-maximal effect (inhibition of death in erastin (10 μM)-treated HT-1080 cells, Alamar Blue, from dose response curves) (EC50). In other words, the sub-micromolar range. `CCOC(=O)c1ccc(NC2CCCCC2)c(NCc2cncnc2)c1` [SRS13-35, ethyl 4-(cyclohexylamino)-3-(pyrimidin-5-ylmethylamino)-benzoate] returned an EC50 under setting [1] of 0.027 µM. With `CCOC(=O)c1cnc(NC2CCCCC2)c(NCc2ccncn2)c1` [SRS14-93, ethyl 6-(cyclohexylamino)-5-(pyrimidin-4 ylmethylamino)-pyridine-3-carboxylate], under setting [1], the concentration for a half-maximal effect (EC50) amounted to 1.55 µM. With `CCOC(=O)c1ccc(NC2C3CC4CC(C3)CC2C4)c(NCc2ccncc2)c1` (stereo not shown) [SRS15-21, ethyl 4-(2-adamantylamino)-3-((pyridin-4-ylmethyl)amino)-benzoate], the concentration for a half-maximal effect (EC50) under setting [1] was less than 0.005 µM. Under setting [1], `CCOC(=O)c1ccc(NC2CCCCC2)c(NCc2ccc3ccccc3c2)c1` [SRS12-51, ethyl 4-(cyclohexylamino)-3-(naphthalen-2-ylmethylamino)-benzoate] displayed an EC50 of 0.056 µM. For `CCOC(=O)c1ccc(CNc2cc(C(=O)OCC)ccc2NC2CCCCC2)cc1` [SRS12-84, ethyl 4-(cyclohexylamino)-3-(4-(ethoxycarbonyl)benzylamino)-benzoate], the EC50 under setting [1] was 0.052 µM. On to `CCOC(=O)c1ccc(NC23CC4CC(CC(C4)C2)C3)c(N)c1` [SRS15-18, ethyl 3-amino-4-(1-adamantylamino)benzoate], for which it took 0.088 µM to reach a half-maximal effect under setting [1] (EC50). Compared with the last molecule, the EC50 is about 1.7-fold higher. For the molecule `CCOC(=O)c1ccc(NC2CCCC2)c(N)c1` [SRS8-73, ethyl 3-amino-4-(cyclopentylamino)benzoate], the response under setting [1] was half-maximal at 0.12 µM (EC50).

Take `CCOC(=O)c1ccc(NC2C3CC4CC(C3)CC2C4)c(NCc2cncnc2)c1` (stereo not shown) [SRS15-22, ethyl 4-(2-adamantylamino)-3-(pyrimidin-5-ylmethylamino)-benzoate]: the EC50 under setting [1] came out at 0.021 µM. Consider `CCOC(=O)c1ccc(NC2CCCCC2)c(NCc2ccc(C(=O)OC)cc2)c1` [SRS12-69, ethyl 4-(cyclohexylamino)-3-(4-(methoxycarbonyl)-benzylamino)benzoate], for which, under setting [1], the midpoint of the response, the EC50, lay at 0.058 µM. Consider `CCOC(=O)c1ccc(NC2C3CC4CC(C3)CC2C4)c(NCc2ccccc2)c1` (stereo not shown) [SRS15-20-mono, ethyl 3-(benzylamino)-4-(2-adamantylamino)benzoate], for which the EC50 under setting [1] stood at 0.022 µM.

`CCOC(=O)c1ccc(NC2CCCCCCC2)c(N(C)C)c1` [SRS9-01, ethyl 4-(cyclooctylamino)-3-(dimethylamino)benzoate]: the EC50 under setting [1] was 3.46 µM. On the same count and under the same terms, in the case of `CCOC(=O)c1ccc(NN2CCN(C)CC2)c(N)c1` [SRS8-53, ethyl 3-amino-4-(4-methylpiperazin-1-ylamino)benzoate] it was 3.6 µM; in that of `CCOC(=O)c1cnc(NC2CCCCC2)c(N)c1` [SRS14-86, ethyl 5-amino-6-(cyclohexylamino)pyridine-3-carboxylate], 0.544 µM; in that of `CCOC(=O)c1ccc(NC2CCNCC2)c(N)c1` [SRS8-81, ethyl 3-amino-4-(piperidin-4-ylamino)benzoate], 0.35 µM. On the same count and under the same terms, next, `CCCCCCCCN(CCCCCCCC)c1ccc(C(=O)OCC)cc1N` [SRS12-12, ethyl 3-amino-4-(dioctylamino)benzoate]: more than 10 µM. `CCOC(=O)c1cnc(NC2CCCCC2)c(NCc2ccccc2)c1` [SRS14-91, ethyl 5-(benzylamino)-6-(cyclohexylamino)pyridine-3-carboxylate]: the EC50 under setting [1] is 0.048 µM. `CCOC(=O)c1ccc(NC2CCC(C(C)(C)C)CC2)c(N)c1` (stereo not shown) [SRS8-92, ethyl 3-amino-4-(4-tert-butylcyclohexylamino)benzoate] displayed an EC50 under setting [1] of 0.042 µM.
